Assay results as given in PubChem BioAssay AID328 (DTP/NCI, 2004).
Values joined by “and” are separate entries in the source; they are usually repeats but may differ in a detail not shown here. Identical values can stand only once. Inconclusive results and toxic doses are left out.

Tested on: BDF1 mice, P388 leukemia ip, median survival T/C
Experiment: NCI In Vivo Anticancer Drug Screen. Data for tumor model P388 Leukemia (intraperitoneal) in B6D2F1 (BDF1) mice
Settings: endpoint: median survival time, higher = longer survival
Description: The antitumor activity of compounds was measured in mice bearing transplantable tumors. Survival or tumor size were measured and the results are expressed as the measurement made in the treated group (T) divided by the measurement made in the vehicle treated control group (C). The tumor model used in this assay is P388 Leukemia (intraperitoneal) in B6D2F1 (BDF1) mice

[1] = dose: 50.0 mg/kg/injection, schedule: Q01DX009 (ip), vehicle: saline with Tween-80
[2] = dose: 100.0 mg/kg/injection, schedule: Q01DX009 (ip), vehicle: saline with Tween-80
[3] = dose: 200.0 mg/kg/injection, schedule: Q01DX009 (ip), vehicle: saline with Tween-80

## Cc1c(C#N)c2nc(C(=O)c3ccc(Br)cc3)cc(-c3ccc(Br)cc3)n2c1C
dose: 25.0 mg/kg/injection, schedule: Q01DX009 (ip), vehicle: saline with Tween-80
  T/C: 109 % of control
[1]
  T/C: 104 % of control
dose: 50.0 mg/kg/injection, schedule: Q04DX003 (ip), vehicle: saline with Tween-80
  T/C: 87 % of control
[2]
  T/C: 104 % of control
dose: 100.0 mg/kg/injection, schedule: Q04DX003 (ip), vehicle: saline with Tween-80
  T/C: 91 % of control
[3]
  T/C: 109 % of control
dose: 200.0 mg/kg/injection, schedule: Q04DX003 (ip), vehicle: saline with Tween-80
  T/C: 87 % of control
dose: 400.0 mg/kg/injection, schedule: Q04DX003 (ip), vehicle: saline with Tween-80
  T/C: 87 % of control

## CCCCN(CCCC)CCC(O)c1cc2ccc(C(F)(F)F)cc2c2cc(C(F)(F)F)ccc12 (stereo unspecified)
[1]
  T/C: 94 % of control
[2]
  T/C: 90 % of control
[3]
  T/C: 110 % of control

## CN1CCN(c2ccc([N+](=O)[O-])c3no[n+]([O-])c23)CC1
dose: 10.0 mg/kg/injection, schedule: Q01DX009 (ip), vehicle: saline with Tween-80
  T/C: 166 % of control
dose: 20.0 mg/kg/injection, schedule: Q01DX009 (ip), vehicle: saline with Tween-80
  T/C: 169 % of control

## Cc1c2oc3c(C)c([N+](=O)[O-])cc(C(=O)NC4C(=O)NC(C(C)C)C(=O)N5CCCC5C(=O)N(C)CC(=O)N(C)C(C(C)C)C(=O)OC4C)c3nc-2c(C(=O)NC2C(=O)NC(C(C)C)C(=O)N3CCCC3C(=O)N(C)CC(=O)N(C)C(C(C)C)C(=O)OC2C)c(N)c1=O (stereo unspecified)
dose: 150.0 micrograms/kg/injection, schedule: Q01DX009 (ip), vehicle: saline + alcohol
  T/C: 153 % of control
dose: 450.0 micrograms/kg/injection, schedule: Q04DX003 (ip), vehicle: saline + alcohol
  T/C: 110 % of control
dose: 600.0 micrograms/kg/injection, schedule: Q04DX003 (ip), vehicle: saline + alcohol
  T/C: 108 % of control

## COc1cc(NC(=O)CC(C)=O)c(OC)cc1Cl
[2]
  T/C: 95 % of control
[3]
  T/C: 100 % of control
dose: 400.0 mg/kg/injection, schedule: Q01DX009 (ip), vehicle: saline with Tween-80
  T/C: 104 % of control

## CC(CN1CC(=O)NC(=O)C1)N1CC(=O)NC(=O)C1 (stereo unspecified)
dose: 3.12 mg/kg/injection, schedule: Q03HX024 (ip), vehicle: steriod suspending solution
  T/C: 200 % of control
dose: 3.75 mg/kg/injection, schedule: Q01DX010 (oral), vehicle: saline with Tween-80
  T/C: 109 % of control
dose: 6.25 mg/kg/injection, schedule: Q03HX024 (ip), vehicle: steriod suspending solution
  T/C: 205 % of control
dose: 10.0 mg/kg/injection, schedule: Q04DX003 (ip), vehicle: Klucel (hydroxypropylcellulose) (HPC)
  T/C: 117 % of control
dose: 12.5 mg/kg/injection, schedule: Q01DX009 (ip), vehicle: steriod suspending solution
  T/C: 100 % of control
dose: 12.5 mg/kg/injection, schedule: Q03HX024 (ip), vehicle: steriod suspending solution
  T/C: 258 % of control
dose: 15.0 mg/kg/injection, schedule: Q01DX010 (oral), vehicle: saline with Tween-80
  T/C: 154 % of control
dose: 25.0 mg/kg/injection, schedule: Q03HX024 (ip), vehicle: steriod suspending solution
  T/C: 211 % of control
dose: 30.0 mg/kg/injection, schedule: Q01DX010 (ip), vehicle: saline
  T/C: 186 % of control
dose: 50.0 mg/kg/injection, schedule: Q01DX009 (ip), vehicle: steriod suspending solution
  T/C: 164 % of control
dose: 50.0 mg/kg/injection, schedule: Q04DX002 (ip), vehicle: Klucel (hydroxypropylcellulose) (HPC)
  T/C: 111 % of control
dose: 60.0 mg/kg/injection, schedule: Q01DX010 (ip), vehicle: saline
  T/C: 181 % of control
dose: 100.0 mg/kg/injection, schedule: Q01DX001 (ip), vehicle: steriod suspending solution
  T/C: 111 % of control
dose: 100.0 mg/kg/injection, schedule: Q01DX009 (ip), vehicle: steriod suspending solution
  T/C: 111 % of control
dose: 100.0 mg/kg/injection, schedule: Q04DX002 (ip), vehicle: Klucel (hydroxypropylcellulose) (HPC)
  T/C: 108 % of control
dose: 100.0 mg/kg/injection, schedule: Q04DX003 (ip), vehicle: steriod suspending solution
  T/C: 176 % of control
dose: 108.0 mg/kg/injection, schedule: Q04DX003 (ip), vehicle: Klucel (hydroxypropylcellulose) (HPC)
  T/C: 231 % of control
dose: 120.0 mg/kg/injection, schedule: Q01DX010 (ip), vehicle: saline
  T/C: 113 % of control
dose: 144.0 mg/kg/injection, schedule: Q04DX003 (ip), vehicle: Klucel (hydroxypropylcellulose) (HPC)
  T/C: 203 % of control
dose: 180.0 mg/kg/injection, schedule: Q04DX003 (ip), vehicle: Klucel (hydroxypropylcellulose) (HPC)
  T/C: 287 % of control
dose: 180.0 mg/kg/injection, schedule: Q04DX003 (ip), vehicle: alkali diluted with saline
  T/C: 196 % of control
dose: 200.0 mg/kg/injection, schedule: Q04DX002 (ip), vehicle: Klucel (hydroxypropylcellulose) (HPC)
  T/C: 161 % of control
dose: 200.0 mg/kg/injection, schedule: Q04DX003 (ip), vehicle: Klucel (hydroxypropylcellulose) (HPC)
  T/C: 100 % of control and 153 % of control and 215 % of control
dose: 200.0 mg/kg/injection, schedule: Q04DX003 (ip), vehicle: steriod suspending solution
  T/C: 194 % of control
dose: 216.0 mg/kg/injection, schedule: Q04DX003 (ip), vehicle: Klucel (hydroxypropylcellulose) (HPC)
  T/C: 212 % of control
dose: 240.0 mg/kg/injection, schedule: Q04DX003 (ip), vehicle: Klucel (hydroxypropylcellulose) (HPC)
  T/C: 245 % of control
dose: 300.0 mg/kg/injection, schedule: Q04DX003 (ip), vehicle: alkali diluted with saline
  T/C: 252 % of control
dose: 400.0 mg/kg/injection, schedule: Q01DX001 (ip), vehicle: steriod suspending solution
  T/C: 152 % of control
dose: 400.0 mg/kg/injection, schedule: Q04DX002 (ip), vehicle: Klucel (hydroxypropylcellulose) (HPC)
  T/C: 193 % of control and 199 % of control
dose: 400.0 mg/kg/injection, schedule: Q04DX003 (ip), vehicle: steriod suspending solution
  T/C: 176 % of control
dose: 500.0 mg/kg/injection, schedule: Q04DX003 (ip), vehicle: Klucel (hydroxypropylcellulose) (HPC)
  T/C: 91 % of control and 96 % of control
dose: 500.0 mg/kg/injection, schedule: Q04DX003 (ip), vehicle: alkali diluted with saline
  T/C: 93 % of control
dose: 800.0 mg/kg/injection, schedule: Q01DX001 (ip), vehicle: steriod suspending solution
  T/C: 94 % of control
dose: 800.0 mg/kg/injection, schedule: Q04DX003 (ip), vehicle: steriod suspending solution
  T/C: 111 % of control

## Cc1cnccc1Br
dose: 12.5 mg/kg/injection, schedule: Q04DX003 (ip), vehicle: water
  T/C: 103 % of control
dose: 25.0 mg/kg/injection, schedule: Q04DX003 (ip), vehicle: water
  T/C: 103 % of control
dose: 50.0 mg/kg/injection, schedule: Q04DX003 (ip), vehicle: water
  T/C: 103 % of control
dose: 100.0 mg/kg/injection, schedule: Q04DX003 (ip), vehicle: water
  T/C: 97 % of control
dose: 200.0 mg/kg/injection, schedule: Q04DX003 (ip), vehicle: water
  T/C: 94 % of control

## CCOCN(COCC)c1cccc(Cl)c1
[1]
  T/C: 100 % of control and 115 % of control
[2]
  T/C: 118 % of control
[3]
  T/C: 118 % of control

## OC(CNc1ccc(CSc2ccccc2)cc1)c1ccccc1 (stereo unspecified)
dose: 50.0 mg/kg/injection, schedule: Q01DX009 (ip), vehicle: other
  T/C: 120 % of control
dose: 100.0 mg/kg/injection, schedule: Q01DX009 (ip), vehicle: other
  T/C: 123 % of control

## CCOC(C[Se][Se]CC(OCC)OCC)OCC
dose: 1.56 mg/kg/injection, schedule: Q01DX009 (ip), vehicle: saline
  T/C: 99 % of control
dose: 3.13 mg/kg/injection, schedule: Q01DX009 (ip), vehicle: saline
  T/C: 102 % of control
dose: 6.25 mg/kg/injection, schedule: Q01DX009 (ip), vehicle: saline
  T/C: 102 % of control

## N#CCCCn1nnc(-c2ccccc2)n1
[1]
  T/C: 100 % of control
[2]
  T/C: 108 % of control

## O=P(N1CC1)(N1CC1)N1CC2CCC(CC2)C1
dose: 25.0 mg/kg/injection, schedule: Q04DX003 (ip), vehicle: saline
  T/C: 163 % of control
dose: 37.5 mg/kg/injection, schedule: Q04DX003 (ip), vehicle: saline
  T/C: 236 % of control

## O=C(Nc1ccc(Br)cc1)c1cc(Br)ccc1O
dose: 50.0 mg/kg/injection, schedule: Q01DX010 (ip), vehicle: steriod suspending solution
  T/C: 104 % of control
dose: 100.0 mg/kg/injection, schedule: Q01DX010 (ip), vehicle: steriod suspending solution
  T/C: 100 % of control
dose: 200.0 mg/kg/injection, schedule: Q01DX010 (ip), vehicle: steriod suspending solution
  T/C: 100 % of control
dose: 400.0 mg/kg/injection, schedule: Q01DX010 (ip), vehicle: steriod suspending solution
  T/C: 109 % of control

## O=C1C(F)=C(N2CC2)C(=O)C(N2CCOCC2)=C1N1CC1
dose: 3.0 mg/kg/injection, schedule: Q01DX009 (ip), vehicle: saline
  T/C: 157 % of control
dose: 6.0 mg/kg/injection, schedule: Q01DX009 (ip), vehicle: saline
  T/C: 99 % of control
